One may read the IC50 as the concentration that gives 50% inhibition.

Where two headings read alike, the source gives them in different places.

The values that follow come from patent US20170305861A1, “HETEROARYL COMPOUNDS COMPRISING NITROGEN AND USE THEREOF” (ImmunoMet Therapeutics, Inc, priority 2016, published 2017).

One assay has as its system SK-MEL-28 cells. Put plainly: Inhibitory effect of cancer cell proliferation, MTT. The note with it: Homo sapiens. The class given is cell-based. How it is done:
The compounds prepared in the above Examples were evaluated for the inhibitory effect of cancer cell proliferation according to the method described in the following Test Example.
SK-MEL-28 cells derived from human melanoma were used, and the concentration (cell growth inhibitory concentration, IC50) at which cell growth was inhibited to 50% was measured using MTT reagent (3-(4,5-dimethylthiazole-2-yl)-2,5-[…] bromide) to confirm the inhibitory effect of cancer cell proliferation of the drugs synthesized in Examples 1 to 84.
First, SK-MEL-28 cells were cultured in 96-well plates at a cell number of about 1,250 in RPMI-1640 medium containing 11.1 mM glucose and 10% calf blood serum or 0.75 mM glucose and 10% calf blood serum, and were cultured for 16 hours. […] After treatment of the compound, MTT was added to the culture medium to confirm living cells and further cultured for 2 hours. The resulting formazane crystal was dissolved using dimethyl sulfoxide, and the absorbance of the solution was measured at 555 nm. After culturing for 72 hours, the number of viable cells in the well plate treated with the compounds synthesized in the Examples relative to the number of cells cultured in the well plate without treatment of the compounds was expressed as cell viability (%) according to each treatment concentration. By using this, a cell viability curve graph was prepared, and the inhibitory effect of cancer cell proliferation was confirmed by calculating the concentration of the compound whose growth was inhibited to 50% (IC50).

For assay [1], the system named is A549 cell lines (lung cancer cell lines). Put plainly: Oxygen Consumption Rate (OCR) of cells, corrected for cell viability (Cyquant). The class given is cell-based. To be noted: Homo sapiens, read-out: OCR IC50. As for the experimental part: The compounds synthesized by the methods disclosed in the Examples of the present invention have been measured on oxygen consumption rate and extracellular oxidation by the methods disclosed in the Test Examples below.
3×10^3 cells from A549 cell lines (purchased from ATCC-American Type Culture Collection), which are lung cancer cell lines, were placed on XF96 cell culture plates using RPMI1640 medium, and cultured at 37° C. in a 5% CO2 condition for 16 hours or more for attachment.
After 16 hours, the cells were treated with the drug at six different concentrations between 0 μM and 20 μM. After 24 hours, the existing medium was removed, and XF assay medium (15 mM D-Glucose, 15 mM sodium pyruvate, 4 mM L-Glutamine, pH 7.4) was added. The cells were retreated with the drug, and additionally cultured in Prep station at 37° C. in a non-CO2 condition for 1 hour. During the one-hour culture in the Prep station, a sensor cartridge was placed and calibrated for 20 minutes, and a plate with cells was placed to analyze the OCR. After the analysis was completed, XF96 plate was measured for cell viability using Cyquant assay, which measures the amount of intracellular DNA, in the following method. XF assay medium and the drug were removed, and the cells were placed in a cryogenic refrigerator (−80° C.) for at least 4 hours to be frozen. After the plate was made to be at room temperature, a solution where a lysis buffer and fluorescent GR dye were mixed was placed by 200 μL per well. After 20-minute reaction at room temperature, […] was measured between […] to calculate cell viability. A measured value of a well untreated with the drug was converted to 100% by reflecting cell viability to the OCR value. Concentration of a drug which inhibits the OCR value reflecting cell viability by 50% was calculated.

Where [2] appears, read: SK-MEL-28, 0.75 mM glucose, 72 hours, MTT, read-out: SK-MEL-28 0.75 mM glucose Cell viability (IC50 μM).
[3] abbreviates: SK-MEL-28, 11.1 mM glucose, 72 hours, MTT, read-out: SK-MEL-28 11.1 mM glucose Cell viability (IC50 μM).
[4] abbreviates: A549 cells, 24 h drug treatment, OCR value reflecting cell viability.

On to `Nc1cc[n+](Cc2ccccc2)cc1` [Example 20, 4-Amino-1-benzylpyridinium chloride], for which the IC50 was found to be 14.7 µM with SK-MEL-28 cells (setting [2]), 143 µM with SK-MEL-28 cells (setting [3]) and 1.8 µM in assay [1] (setting [4]).
The matching figures for `Nc1cc[n+](Cc2ccccc2)c(F)c1` [Example 21, 4-Amino-1-benzyl-2-fluoropyridinium chloride]: 12.5 µM, 27.4 µM and 0.9 µM.
With `c1ccc(CC[n+]2cccc3c2CCCC3)cc1` [Example 22, 1-Phenethyl-5,6,7,8-tetrahydroquinolinium chloride], the IC50 with SK-MEL-28 cells (setting [2]) was 18.5 µM; with SK-MEL-28 cells (setting [3]), 193 µM; in assay [1] (setting [4]), 7.9 µM.
For the compound `Nc1cc[n+](CCCc2ccccc2)cc1` [Example 23, 4-Amino-1-(3-phenylpropyl)pyridinium chloride], the IC50 with SK-MEL-28 cells (setting [2]) was determined as 5.4 µM; in the assay on SK-MEL-28 cells (setting [3]) it was 51.1 µM; in assay [1] (setting [4]), 0.9 µM.
As for `Nc1cc[n+](CCCc2ccccc2)c(F)c1` [Example 24, 4-Amino-2-fluoro-1-(3-phenylpropyl)pyridinium chloride], the IC50 in the assay with SK-MEL-28 cells (setting [2]) was determined as 4.4 µM; in the assay with SK-MEL-28 cells (setting [3]), 16.8 µM; in assay [1] (setting [4]) it was 0.8 µM.
The matching figures for `Nc1cc[n+](CC(=O)c2ccc(OC(F)(F)F)cc2)cc1` [Example 25, 4-Amino-1-(2-oxo-2-(4-(trifluoromethoxy)phenyl)ethyl)pyridinium bromide]: 15.5 µM, 40.6 µM and 1.6 µM.
In the case of `Nc1cc[n+](CC(=O)c2ccccc2)cc1` [Example 26, 4-Amino-1-(2-oxo-2-phenylethyl)pyridinium bromide], the IC50 in the assay on SK-MEL-28 cells (setting [2]) turned out to be 102 µM; with SK-MEL-28 cells (setting [3]), 194 µM; in assay [1] (setting [4]), 2.4 µM.
Regarding `Nc1cc[n+](CCC2CCCCC2)cc1` [Example 27, 4-Amino-1-(2-cyclohexylethyl)pyridinium bromide], the 50% inhibitory concentration (IC50) in the assay with SK-MEL-28 cells (SK-MEL-28, 72 h, read-out: SK-MEL-28 0.75 mM glucose Cell viability (IC50 μM)) turned out to be 1.7 µM; with SK-MEL-28 cells (SK-MEL-28, 72 h, read-out: SK-MEL-28 11.1 mM glucose Cell viability (IC50 μM)) it was 19.5 µM; in assay [1] (A549, 24 h), 0.4 µM.
On to `Nc1cc[n+](CCC2CCCCC2)c(F)c1` [Example 28, 4-Amino-1-(2-cyclohexylethyl)-2-fluoropyridinium bromide], for which the IC50 in the assay on SK-MEL-28 cells (setting [2]) turned out to be 0.7 µM; with SK-MEL-28 cells (setting [3]), 3.8 µM; in assay [1] (setting [4]) it was 0.4 µM.
Turning to `Nc1cc[n+](Cc2ccccc2)c(N)c1` [Example 29, 2,4-Diamino-1-benzylpyridinium chloride], the IC50 is 38.5 µM in the assay on SK-MEL-28 cells (setting [2]), 162 µM in the assay with SK-MEL-28 cells (setting [3]) and 5.3 µM in assay [1] (setting [4]).
Turning to `Nc1cc[n+](Cc2ccccc2)c(Cl)c1` [Example 30, 4-Amino-1-benzyl-2-chloropyridinium chloride], the IC50 with SK-MEL-28 cells (setting [2]) turned out to be 8.2 µM; with SK-MEL-28 cells (setting [3]), 23 µM; in assay [1] (setting [4]), 0.9 µM.
For the compound `Nc1cc[n+](CC2CC2)cc1` [Example 31, 4-Amino-1-(cyclopropylmethyl)pyridinium chloride], the IC50 in the assay with SK-MEL-28 cells (setting [2]) was 56.2 µM; in the assay with SK-MEL-28 cells (setting [3]), 418 µM; in assay [1] (setting [4]) it was 4.3 µM.
In the case of `Nc1cc[n+](CCc2ccccc2)c(Cl)c1` [Example 32, 4-Amino-2-chloro-1-phenethylpyridinium chloride], the IC50 is 8.1 µM with SK-MEL-28 cells (setting [2]), 38.8 µM in the assay on SK-MEL-28 cells (setting [3]) and 0.3 µM in assay [1] (setting [4]).
Consider `CNc1cc[n+](CCc2ccccc2)cc1` [Example 33, 4-(Methylamino)-1-phenethylpyridinium chloride], for which the IC50 worked out at 7.7 µM with SK-MEL-28 cells (setting [2]), 102 µM in the assay on SK-MEL-28 cells (setting [3]) and 1.5 µM in assay [1] (setting [4]).
For the compound `CNc1cc[n+](Cc2ccccc2)cc1` [Example 34, 1-Benzyl-4-(methylamino)pyridinium chloride], the 50% inhibitory concentration (IC50) in the assay on SK-MEL-28 cells (setting [2]) came to 7.9 µM; with SK-MEL-28 cells (setting [3]), 101 µM; in assay [1] (setting [4]) it was 1.1 µM.
Regarding `Nc1cc[n+](Cc2ccc(Cl)c(Cl)c2)c(F)c1` [Example 35, 4-Amino-1-(3,4-dichlorobenzyl)-2-fluoropyridinium chloride], the results for the IC50 (in the assay with SK-MEL-28 cells (setting [2]); in the assay on SK-MEL-28 cells (setting [3]); in assay [1] (setting [4])) were 5 µM, 7.5 µM and 0.5 µM, respectively.
For the compound `Nc1cc[n+](Cc2ccc(Cl)c(Cl)c2)cc1` [Example 36, 4-Amino-1-(3,4-dichlorobenzyl)pyridinium chloride], the figures for the IC50 (in the assay on SK-MEL-28 cells (setting [2]); with SK-MEL-28 cells (setting [3]); in assay [1] (setting [4])) were 2.8 µM, 13.1 µM and 0.7 µM, respectively.
Regarding `CNc1cc[n+](Cc2ccc(Cl)c(Cl)c2)cc1` [Example 37, 1-(3,4-Dichlorobenzyl)-4-(methylamino)pyridinium chloride], the IC50 in the assay with SK-MEL-28 cells (setting [2]) stood at 1.5 µM; in the assay with SK-MEL-28 cells (setting [3]), 10.8 µM; in assay [1] (setting [4]), 1.1 µM.
Take `CN(C)c1cc[n+](Cc2ccc(Cl)c(Cl)c2)cc1` [Example 38, 1-(3,4-Dichlorobenzyl)-4-(dimethylamino)pyridinium chloride]: the figures for the IC50 (with SK-MEL-28 cells (setting [2]); in the assay with SK-MEL-28 cells (setting [3]); in assay [1] (setting [4])) were 1.5 µM, 11.7 µM and 1.1 µM, respectively.
With `Nc1cc[n+](CC2CC2)c(F)c1` [Example 39, 4-Amino-1-(cyclopropylmethyl)-2-fluoropyridinium chloride], the values for the IC50 (with SK-MEL-28 cells (setting [2]); in the assay with SK-MEL-28 cells (setting [3]); in assay [1] (setting [4])) were 45.3 µM, 76.5 µM and 2.7 µM, respectively.
The matching figures for `Nc1cc[n+](CCC2CCCCC2)c(N)c1` [Example 40, 2,4-Diamino-1-(2-cyclohexylethyl)pyridinium bromide]: 7.5 µM, 30.6 µM and 0.9 µM.
Consider `CNc1cc[n+](CC2CC2)cc1` [Example 41, 1-(Cyclopropylmethyl)-4-(methylamino)pyridinium chloride], for which the IC50 in the assay on SK-MEL-28 cells (setting [2]) was determined as 35.1 µM; with SK-MEL-28 cells (setting [3]) it was 234 µM; in assay [1] (setting [4]) it was 2.7 µM.
Regarding `CN(C)c1cc[n+](CC2CC2)cc1` [Example 42, 1-(Cyclopropylmethyl)-4-(dimethylamino)pyridinium chloride], the IC50 was determined as 35 µM with SK-MEL-28 cells (setting [2]), 199 µM in the assay on SK-MEL-28 cells (setting [3]) and 1.5 µM in assay [1] (setting [4]).
With `Cc1c[n+](Cc2ccccc2)ccc1N` [Example 43, 4-Amino-3-methyl-1-benzylpyridinium chloride], the IC50 amounted to 14.4 µM in the assay with SK-MEL-28 cells (setting [2]), 45.5 µM with SK-MEL-28 cells (setting [3]) and 0.9 µM in assay [1] (setting [4]).
The matching figures for `Cc1c[n+](CCc2ccccc2)ccc1N` [Example 44, 4-Amino-3-methyl-1-phenethylpyridinium chloride]: 15.2 µM, 105 µM and 1.1 µM.
Consider `COc1cc(N)cc[n+]1Cc1ccccc1` [Example 45, 4-Amino-1-benzyl-2-methoxypyridinium chloride], for which the values for the IC50 (in the assay with SK-MEL-28 cells (setting [2]); in the assay on SK-MEL-28 cells (setting [3]); in assay [1] (setting [4])) were 16.6 µM, 81.4 µM and 5 µM, respectively.
On to `Nc1cc[n+](CC2CCCCC2)cc1` [Example 46, 4-Amino-1-(cyclohexylmethyl)pyridinium bromide], for which the IC50 stood at 7.9 µM in the assay with SK-MEL-28 cells (setting [2]), 49.6 µM in the assay with SK-MEL-28 cells (setting [3]) and 0.8 µM in assay [1] (setting [4]).
For `Nc1cc[n+](CC2CCC2)cc1` [Example 47, 4-Amino-1-(cyclobutylmethyl)pyridinium bromide], the IC50 in the assay on SK-MEL-28 cells (setting [2]) worked out at 20.3 µM; with SK-MEL-28 cells (setting [3]) it was 167 µM; in assay [1] (setting [4]), 5 µM.
As to `Nc1cc[n+](CC2CCC2)c(F)c1` [Example 48, 4-Amino-1-(cyclobutylmethyl)-2-fluoropyridinium bromide], the IC50 in the assay with SK-MEL-28 cells (setting [2]) was 19.9 µM; in the assay on SK-MEL-28 cells (setting [3]), 46.3 µM; in assay [1] (setting [4]) it was 0.8 µM.
Regarding `Nc1cc[n+](Cc2ccc(F)cc2)cc1` [Example 49, 4-Amino-1-(4-fluorobenzyl)pyridinium bromide], the IC50 in the assay with SK-MEL-28 cells (setting [2]) is 10.3 µM; with SK-MEL-28 cells (setting [3]) it was 54.5 µM; in assay [1] (setting [4]) it was 2.4 µM.
